Publication PMC12717519, “Chemical clues to infection: A pilot study on the differential secondary metabolite production during the life cycle of selected Cordyceps species” (IMA Fungus, 2025)
≈ marks a conversion by molar mass, not a printed value. Like-named read-outs stand apart in the source and are kept apart here.

Columns and labels:
[1] = test system: Bacillus subtilis (DSM 10); test: microbe, parasite or virus in culture; assay type: cell-based
Protocol: (§1) Serial dilution assays were performed in 96-well microtiter plates to determine the minimum inhibitory concentrations (MICs) against a panel of yeasts, filamentous fungi, and bacteria, as well as the half-maximal inhibitory concentrations (IC50) against human cell lines, following our previously described protocol ([Charria-Girón et al. 2023]).

[2] = test system: Staphylococcus aureus (DSM 346); test: microbe, parasite or virus in culture; assay type: cell-based
Protocol: as §1

[3] = test system: Candida albicans (DSM 1665); test: MIC serial dilution assay; assay type: cell-based; details: serial dilution in 96-well microtiter plates; tested up to 67 µg/mL
Protocol: as §1

[4] = test system: Escherichia coli (DSM 1116); test: MIC serial dilution assay; assay type: cell-based; details: serial dilution in 96-well microtiter plates; tested up to 67 µg/mL
Protocol: as §1

[5] = test system: Mucor hiemalis (DSM 2656); test: MIC serial dilution assay; assay type: cell-based; details: serial dilution in 96-well microtiter plates; tested up to 67 µg/mL
Protocol: as §1

[6] = test system: Mycobacterium smegmatis (ATCC 700084); test: MIC serial dilution assay; assay type: cell-based; details: serial dilution in 96-well microtiter plates; tested up to 67 µg/mL
Protocol: as §1

[7] = test system: Pseudomonas aeruginosa (PA14); test: MIC serial dilution assay; assay type: cell-based; details: serial dilution in 96-well microtiter plates; tested up to 67 µg/mL
Protocol: as §1

[8] = test system: Human endocervival adenocarcinoma (KB3.1); test: cells; assay type: cell-based
Protocol: as §1

[9] = test system: Human breast adenocarcinoma (MCF-7); test: Cytotoxicity assay; assay type: cell-based; details: serial dilution in 96-well plates
Protocol: as §1

[10] = test system: Human ovarian cancer (SKOV-3); test: Cytotoxicity assay; assay type: cell-based; details: serial dilution in 96-well plates
Protocol: as §1

[11] = test system: Human epidermoid carcinoma (A431); assay type: cell-based
Protocol: as §1

[12] = test system: Human lung carcinoma (A549); assay type: cell-based
Protocol: as §1

[13] = test system: Human prostate carcinoma (PC-3); assay type: cell-based
Protocol: as §1

[14] = test system: beet armyworm (Spodoptera exigua, Lepidoptera); test: Virulence of purified compounds against beet armyworm larvae (injection); assay type: in vivo; details: larvae injected with 0.5 µL of DMSO dilutions (40 to 0.625 µg/mL), n = 6 per concentration, 25 °C, concentration of the value not stated
Protocol: To evaluate the virulence of purified compounds against beet armyworm larvae, beauveriolides I (4) and M (5) were selected based on availability, and cytochalasin D served as a positive control. […] Larvae were injected with 0.5 µL of each dilution (n = 6 per concentration), maintained at 25 °C for one week, and monitored daily to assess mortality. Saline ([…]) and DMSO served as negative controls.
For proof of concept, beauveriolides I (4) and M (5) were selected based on availability and tested following the spore-suspension protocol but considering only total mortality, with cytochalasin D, a mycotoxin commonly produced by Metarhizium spp., used as a positive control ([Kobmoo et al. 2024]).

[15] = ref Namatame et al. 2004; cited from earlier work
Source text: (§2) Our study highlights how amino acid substitutions modulate beauveriolides’ bioactivities. […] Thus, the amino acid at this position is crucial for bioactivity. The lack of antimicrobial activity in some beauveriolides, such as those containing HDA, further supports the hypothesis that these molecules may have different functions, such as facilitating insect pathogenicity rather than broad antimicrobial antagonism.

macrophages = details: ref Namatame et al. 2004; cited from earlier work
Source text: as §2

[16] = test system: Acinetobacter baumannii (DSM 30008); test: MIC serial dilution assay; assay type: cell-based; details: serial dilution in 96-well microtiter plates; tested up to 67 µg/mL
Protocol: as §1

[17] = test system: Chromobacterium violaceum (DSM 30191); test: MIC serial dilution assay; assay type: cell-based; details: serial dilution in 96-well microtiter plates; tested up to 67 µg/mL
Protocol: as §1

[18] = test system: Rhodotorula glutinis (DSM 10134); test: MIC serial dilution assay; assay type: cell-based; details: serial dilution in 96-well microtiter plates; tested up to 67 µg/mL
Protocol: as §1

[19] = test system: Schizosaccharomyces pombe (DSM 70572); test: MIC serial dilution assay; assay type: cell-based; details: serial dilution in 96-well microtiter plates; tested up to 67 µg/mL
Protocol: as §1

[20] = test system: Wickerhamomyces anomalus (DSM 6766); test: MIC serial dilution assay; assay type: cell-based; details: serial dilution in 96-well microtiter plates; tested up to 67 µg/mL
Protocol: as §1

Mouse fibroblast (L929) = test: Cytotoxicity assay; assay type: cell-based; details: serial dilution in 96-well plates
[21] = Solubility in deuterated solvents (for NMR); assay type: physicochemical; details: observation during NMR sample preparation; deuterated solvents / deuterated DMSO
[22] = serial dilution in 96-well microtiter plates, tested up to 67 µg/mL
[23] = KB3.1, serial dilution in 96-well plates, read-out: IC50

Molecule: CCCC[C@H](C)[C@@H]1CC(=O)N[C@@H](Cc2ccccc2)C(=O)N[C@@H](C)C(=O)N[C@H](CC(C)C)C(=O)O1 [Compound 4, beauveriolide I]
- MIC ([1]; DSM 10): 66.6 µg/mL (≈ 137 µM)
- MIC ([2]; DSM 346): 66.6 µg/mL (≈ 137 µM)
- MIC [3]: n.i. (No inhibition up to 67 µg/mL)
- MIC [4]: n.i. (No inhibition up to 67 µg/mL)
- MIC [5]: n.i. (No inhibition up to 67 µg/mL)
- MIC [6]: n.i. (No inhibition up to 67 µg/mL)
- MIC [7]: n.i. (No inhibition up to 67 µg/mL)
- IC50 [8]: 13.3 µM
- IC50 [9]: > 36.5 µM
- IC50 [10]: > 36.5 µM
- IC50 [11]: 1.2 µM
- IC50 [12]: 0.9 µM
- IC50 [13]: 3.5 µM
- total mortality (TM) in the last two days ([14]; 7-day period): 67%
- average total mortality (TM) over the first five days [14]: 33%
- adverse outcomes in animal studies [15]: without adverse outcomes
- antiatherogenic effects in macrophages (macrophages): potent antiatherogenic effects

Molecule: Beauveriolide III [reference compound]
- adverse outcomes in animal studies [15]: without adverse outcomes
- antiatherogenic effects in macrophages (macrophages): potent antiatherogenic effects

Molecule: Beauveriolide Q [Compound 1]
- MIC [1, 22]: n.i. (No inhibition up to 67 µg/mL)
- MIC [2, 22]: n.i. (No inhibition up to 67 µg/mL)
- MIC [16]: n.i. (No inhibition up to 67 µg/mL)
- MIC [3]: n.i. (No inhibition up to 67 µg/mL)
- MIC [17]: n.i. (No inhibition up to 67 µg/mL)
- MIC [4]: n.i. (No inhibition up to 67 µg/mL)
- MIC [5]: n.i. (No inhibition up to 67 µg/mL)
- MIC [6]: n.i. (No inhibition up to 67 µg/mL)
- MIC [7]: n.i. (No inhibition up to 67 µg/mL)
- MIC [18]: n.i. (No inhibition up to 67 µg/mL)
- MIC [19]: n.i. (No inhibition up to 67 µg/mL)
- MIC [20]: n.i. (No inhibition up to 67 µg/mL)
- IC50 (Mouse fibroblast (L929)): > 36.5 µM
- IC50 [8, 23]: > 36.5 µM
- solubility in deuterated solvents [21]: poor solubility

Molecule: Beauveriolide R [Compound 2]
- MIC [1, 22]: n.i. (No inhibition up to 67 µg/mL)
- MIC [2, 22]: n.i. (No inhibition up to 67 µg/mL)
- MIC [16]: n.i. (No inhibition up to 67 µg/mL)
- MIC [3]: n.i. (No inhibition up to 67 µg/mL)
- MIC [17]: n.i. (No inhibition up to 67 µg/mL)
- MIC [4]: n.i. (No inhibition up to 67 µg/mL)
- MIC [5]: n.i. (No inhibition up to 67 µg/mL)
- MIC [6]: n.i. (No inhibition up to 67 µg/mL)
- MIC [7]: n.i. (No inhibition up to 67 µg/mL)
- MIC [18]: n.i. (No inhibition up to 67 µg/mL)
- MIC [19]: n.i. (No inhibition up to 67 µg/mL)
- MIC [20]: n.i. (No inhibition up to 67 µg/mL)
- IC50 (Mouse fibroblast (L929)): > 36.5 µM
- IC50 [8, 23]: > 36.5 µM
- solubility in deuterated solvents [21]: soluble
